According to patent publication US6737383B1, “Herbicidal oxadiazolidines” (priority 1999, dated 2004):

What was measured:
soybean = experiment: Test B pre/postemergence soybean; format: in vivo, Glycine max
Method in brief: (§1)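 Herbicidal effect was estimated by eye on a ten-point control scale after plants spent twelve to sixteen days in a greenhouse following soil or foliar treatment. Foliar sprays targeted plants at one to four leaves; all doses were formulated in a non-phytotoxic solvent with surfactant.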

bedstraw = experiment: Test B pre/postemergence bedstraw; format: in vivo, Galium aparine
Method in brief: as §1

wild oat = experiment: Test B pre/postemergence wild oat; format: in vivo, Avena fatua
Method in brief: as §1

cocklebur = experiment: Test B pre/postemergence cocklebur; format: in vivo, Xanthium strumarium
Method in brief: as §1

purple nutsedge = experiment: Test B pre/postemergence purple nutsedge; format: in vivo, Cyperus rotundus
Method in brief: as §1

bamyardgrass = experiment: Test B flood test barnyardgrass; format: in vivo, Echinochloa crus-galli
Method in brief: (§2)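 Read-out is a visual response score from 0 (no effect) to 10 (complete control), assigned by comparison with untreated controls. Treatment was applied at the 2-leaf stage, and plants stayed in the greenhouse for twelve to sixteen days before scoring.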

wheat = experiment: Test B pre/postemergence wheat; format: in vivo, Triticum aestivum
Method in brief: as §1

smallflower flatsedge = experiment: Test B flood test smallflower flatsedge; format: in vivo, Cyperus difformis
Method in brief: as §2

surinam grass = experiment: Test B pre/postemergence surinam grass; format: in vivo, Brachiaria decumbens
Method in brief: as §1

morningglory = experiment: Test B pre/postemergence morningglory; format: in vivo, Ipomoea hederacea
Method in brief: as §1

duck salad = experiment: Test B flood test duck salad; format: in vivo, Heteranthera limosa
Method in brief: as §2

pigweed = experiment: Test B pre/postemergence pigweed; format: in vivo, Amaranthus retroflexus
Method in brief: as §1

rape = experiment: Test B pre/postemergence rape; format: in vivo, Brassica napus
Method in brief: as §1

sugar beet = experiment: Test B pre/postemergence sugar beet; format: in vivo, Beta vulgaris
Method in brief: as §1

blackgrass = experiment: Test B pre/postemergence blackgrass; format: in vivo, Alopecurus myosuroides
Method in brief: as §1

giant foxtail = experiment: Test B pre/postemergence giant foxtail; format: in vivo, Setaria faberii
Method in brief: as §1

[1] = Postemergence, Rate 62 g/ha, scale 0 to 10, 0 is no effect, 10 is complete control
[2] = Postemergence, Rate 125 g/ha, scale of 0 to 10 where 0 is no effect and 10 is complete control
[3] = Postemergence, Rate 250 g/ha, scale of 0 to 10, 0 is no effect, 10 is complete control
[4] = Preemergence, Rate 62 g/ha, scale 0 to 10 (0 no effect, 10 complete control)
[5] = Preemergence, Rate 125 g/ha, scale of 0 to 10 where 0 is no effect and 10 is complete control
[6] = Preemergence, Rate 250 g/ha, scale 0 to 10 (0 no effect, 10 complete control)
[7] = Preemergence, Rate 500 g/ha, scale of 0 to 10 where 0 is no effect and 10 is complete control
[8] = Postemergence, Rate 500 g/ha, scale of 0 to 10 where 0 is no effect and 10 is complete control
[9] = Rate 62 g/ha, flood test species, Pre-emergence, visual evaluation after twelve to sixteen days
[10] = Rate 125 g/ha, under heading Pre-emergence, flood test species, visual evaluation after twelve to sixteen days
[11] = Rate 250 g/ha, Pre-emergence (flood test species), scale 0 to 10, 0 is no effect, 10 is complete control
[12] = Rate 500 g/ha, Pre-emergence section of Table B, 0 to 10 scale (0 no effect, 10 complete control)

CC(C)N(C(=O)n1oc(=O)n(CNC(=O)c2ccccc2)c1=O)c1ccccc1 [Compound 620]
Plant response rating, Soybean (soybean; [1]): 1 | Plant response rating, Soybean (soybean; [2]): 1 | Soybean plant response rating (soybean; [3]): 1 | Soybean plant response rating (soybean; [4]): 0 | Soybean plant response rating (soybean; [5]): 0 | Plant response rating, Soybean (soybean; [6]): 0 | Plant response rating, Soybean (soybean; [7]): 0 | Plant response rating, Bedstraw (bedstraw; [1]): 0 | Bedstraw plant response rating (bedstraw; [4]): 0 | Bedstraw plant response rating (bedstraw; [5]): 0 | Plant response rating, Bedstraw (bedstraw; [6]): 0 | Bedstraw plant response rating (bedstraw; [7]): 0 | Plant response rating, Wild oats (wild oat; [1]): 0 | Plant response rating, Wild oats (wild oat; [2]): 0 | Wild oats plant response rating (wild oat; [3]): 0 | Wild oats plant response rating (wild oat; [4]): 0 | Wild oats plant response rating (wild oat; [5]): 0 | Plant response rating, Wild oats (wild oat; [6]): 0 | Plant response rating, Wild oats (wild oat; [7]): 0 | Plant response rating, Cocklebur (cocklebur; [1]): 0 | Plant response rating, Cocklebur (cocklebur; [2]): 0 | Cocklebur plant response rating (cocklebur; [3]): 0 | Plant response rating, Cocklebur (cocklebur; [8]): 0 | Cocklebur plant response rating (cocklebur; [4]): 0 | Cocklebur plant response rating (cocklebur; [5]): 0 | Plant response rating, Cocklebur (cocklebur; [6]): 0 | Plant response rating, Cocklebur (cocklebur; [7]): 0 | Plant response rating, Nutsedge (purple nutsedge; [1]): 0 | Plant response rating, Nutsedge (purple nutsedge; [2]): 0 | Nutsedge plant response rating (purple nutsedge; [3]): 0 | Plant response rating, Nutsedge (purple nutsedge; [8]): 0 | Nutsedge plant response rating (purple nutsedge; [4]): 0 | Nutsedge plant response rating (purple nutsedge; [5]): 0 | Plant response rating, Nutsedge (purple nutsedge; [6]): 0 | Plant response rating, Nutsedge (purple nutsedge; [7]): 0 | Plant response rating, Barnyardgrass (0 to 10 scale, 0 is no effect, 10 is complete control) (bamyardgrass; [9]): 0 | Barnyardgrass plant response rating (0 to 10 scale, 0 is no effect, 10 is complete control) (bamyardgrass; [10]): 0 | Barnyardgrass plant response rating (bamyardgrass; [11]): 0 | Barnyardgrass plant response rating (bamyardgrass; [12]): 0 | Plant response rating, Wheat (wheat; [1]): 0 | Plant response rating, Wheat (wheat; [2]): 0 | Wheat plant response rating (wheat; [3]): 0 | Wheat plant response rating (wheat; [4]): 0 | Wheat plant response rating (wheat; [5]): 0 | Plant response rating, Wheat (wheat; [6]): 0 | Plant response rating, Wheat (wheat; [7]): 0 | Plant response rating, S. Flatsedge (0 to 10 scale, 0 is no effect, 10 is complete control) (smallflower flatsedge; [9]): 0 | S. Flatsedge plant response rating (0 to 10 scale, 0 is no effect, 10 is complete control) (smallflower flatsedge; [10]): 0 | S. Flatsedge plant response rating (smallflower flatsedge; [11]): 0 | S. Flatsedge plant response rating (smallflower flatsedge; [12]): 0 | Plant response rating, B. signalgrass (surinam grass; [1]): 0 | Plant response rating, B. signalgrass (surinam grass; [2]): 0 | B. signalgrass plant response rating (surinam grass; [3]): 0 | Plant response rating, B. signalgrass (surinam grass; [8]): 0 | B. signalgrass plant response rating (surinam grass; [4]): 0 | B. signalgrass plant response rating (surinam grass; [5]): 0 | Plant response rating, B. signalgrass (surinam grass; [6]): 0 | B. signalgrass plant response rating (surinam grass; [7]): 0 | Plant response rating, Morningglory (morningglory; [1]): 2 | Morningglory plant response rating (morningglory; [3]): 2 | Morningglory plant response rating (morningglory; [4]): 0 | Morningglory plant response rating (morningglory; [5]): 0 | Plant response rating, Morningglory (morningglory; [6]): 0 | Plant response rating, Morningglory (morningglory; [7]): 0 | Plant response rating, Ducksalad (0 to 10 scale, 0 is no effect, 10 is complete control) (duck salad; [9]): 0 | Ducksalad plant response rating (0 to 10 scale, 0 is no effect, 10 is complete control) (duck salad; [10]): 0 | Ducksalad plant response rating (duck salad; [11]): 0 | Ducksalad plant response rating (duck salad; [12]): 0 | Plant response rating, Redroot pigweed (pigweed; [1]): 0 | Plant response rating, Redroot pigweed (pigweed; [2]): 0 | Redroot pigweed plant response rating (pigweed; [3]): 0 | Redroot pigweed plant response rating (pigweed; [4]): 0 | Redroot pigweed plant response rating (pigweed; [5]): 0 | Plant response rating, Redroot pigweed (pigweed; [6]): 0 | Plant response rating, Redroot pigweed (pigweed; [7]): 0 | Plant response rating, Rape (rape; [1]): 0 | Plant response rating, Rape (rape; [2]): 0 | Rape plant response rating (rape; [3]): 0 | Plant response rating, Rape (rape; [8]): 0 | Rape plant response rating (rape; [4]): 0 | Rape plant response rating (rape; [5]): 0 | Plant response rating, Rape (rape; [6]): 0 | Plant response rating, Rape (rape; [7]): 0 | Plant response rating, Sugarbeets (sugar beet; [1]): 0 | Plant response rating, Sugarbeets (sugar beet; [2]): 0 | Sugarbeets plant response rating (sugar beet; [3]): 0 | Sugarbeets plant response rating (sugar beet; [4]): 0 | Sugarbeets plant response rating (sugar beet; [5]): 0 | Plant response rating, Sugarbeets (sugar beet; [6]): 0 | Plant response rating, Sugarbeets (sugar beet; [7]): 0 | Plant response rating, Blackgrass (blackgrass; [1]): 0 | Plant response rating, Blackgrass (blackgrass; [2]): 0 | Blackgrass plant response rating (blackgrass; [3]): 0 | Plant response rating, Blackgrass (blackgrass; [8]): 0 | Blackgrass plant response rating (blackgrass; [4]): 0 | Blackgrass plant response rating (blackgrass; [5]): 0 | Plant response rating, Blackgrass (blackgrass; [6]): 0 | Blackgrass plant response rating (blackgrass; [7]): 0 | Plant response rating, Giant foxtail (giant foxtail; [1]): 0 | Plant response rating, Giant foxtail (giant foxtail; [2]): 0 | Giant foxtail plant response rating (giant foxtail; [3]): 0 | Giant foxtail plant response rating (giant foxtail; [4]): 0 | Giant foxtail plant response rating (giant foxtail; [5]): 0 | Plant response rating, Giant foxtail (giant foxtail; [6]): 2 | Plant response rating, Giant foxtail (giant foxtail; [7]): 9
